Laboratory results from US6369061B1, “Therapeutic agent for spinal canal stenosis” (Mitsubishi Pharma Corporation, priority 1998, dated 2002).

Test system: rabbit acute spinal canal stenosis model
Test: Rabbit cauda equina nerve graded constriction model as rabbit acute spinal canal stenosis model (nerve conduction velocity, tissue blood flow, tissue oxygen tension)
Type: in vivo
Conditions: for Cauda equina nerve conduction velocity / Cauda equina nerve tissue blood flow / Cauda equina nerve tissue oxygen tension: measured 8 days after model preparation, mean ± standard error
Experimental: Effects of compound A on cauda equina nerve conduction velocity, cauda equina nerve tissue blood flow and variation in cauda equina nerve tissue oxygen tension in a rabbit acute spinal canal stenosis model
(1) Preparation of the Rabbit Cauda Equina Nerve Graded Constriction Model as Rabbit Acute Spinal Canal Stenosis Model Male Japanese white rabbits were fixed at the abdominal position under anesthesia by an intravenous injection of pentobarbital sodium (25 mg/kg, DAINIPPON PHARMACEUTICAL CO., LTD.) and the vertebral arch of the fifth lumbar vertebra was removed under a microscope (OLYMPUS OME) observation to expose cauda equina nerve. After the cauda equina nerve fascicle was gently ligated at one site together with a 26 G injection needle using a catgut suture (chromic catgut (thread 4-0, needle 12.9 mm), Johnson and Johnson), the injection needle was pulled out, and the dissected portion was sutured. In the sham operation group, the cauda equina nerve was only exposed and the dissected portion was sutured.
The rabbits were grouped in turn into a sham operation group (6 rabbits), a solvent group (6 rabbits), a compound A (3 mg/kg) administration group (6 rabbits), a compound A (10 mg/kg) administration group (6 rabbits), a compound A (30 mg/kg) administration group (6 rabbits), and a cilostazol (300 mg/kg, the same anti-platelet drug as compound A as a control drug, Otsuka Pharmaceutical Co., Ltd.) administration group (6 rabbits).
The drug was prepared into the volume of 5 mL/kg by suspending in 0.5% methylcellulose solution, and orally administered repeatedly once a day for 7 consecutive days from the next day of the model preparation. The 0.5% methylcellulose solution (5 mL/kg) was administered in the same manner to the solvent group. Nothing was administered to the sham operation group.
The next day of the final administration (8 days after model animals preparation), the model animals were anesthetized by an intravenous injection of pentobarbital sodium (25 mg/kg) and, after insertion of a tracheal catheter, fixed at the abdominal position. The rabbits were connected to a ventilator (45 times/min) and given pancuronium bromide (0.08 mg/kg, Sankyo Co., Ltd.) by an intravenous administration. The cauda equina nerve tissue blood flow in the downstream portion of the ligation site was measured transdurally using a laser blood flowmeter [ADVANCED LASER FLOWMETER, ALF2100, Advance] under the microscope observation. The cauda equina nerve tissue oxygen tension was measured at the same site using a pO2 monitor (model POG-201, Unique Medical Co. Ltd.). The cauda equina nerve conduction velocity was obtained by deriving the action potential induced by a spinal electric stimulus in the upper point and lower point of the ligation site and dividing the distance between the both points by the difference in the rise latent time (SIGNAL PROCESSOR, San-ei).
The obtained results are shown in mean±standard error. Using SAS (Statistical Analysis System), the following statistical analysis was performed. The sham operation group and the solvent group were compared by the Student's t-test. The effect of the drug was verified by the Dunnett's method to the solvent group as a control. In both tests, p<0.05 was taken as statistically significant.

[1] = 300 mg/kg p.o. once a day for 7 days
[2] = 300 mg/kg p.o., vs. solvent group
[3] = 3 mg/kg p.o. once a day for 7 days
[4] = 10 mg/kg p.o. once a day for 7 days
[5] = 30 mg/kg p.o. once a day for 7 days

| SMILES | Cauda equina nerve conduction velocity [1] [cm/ms] | Cauda equina nerve tissue blood flow [1] [ml/min. 100 g tissue] | Cauda equina nerve tissue oxygen tension [1] [mmHg] | Effect on cauda equina nerve conduction velocity (in words) [2] | Effect on cauda equina nerve tissue blood flow (in words) [2] | Effect on cauda equina nerve tissue oxygen tension (in words) [2] | Cauda equina nerve conduction velocity [3] [cm/ms] | Cauda equina nerve tissue blood flow [3] [ml/min. 100 g tissue] | Cauda equina nerve tissue oxygen tension [3] [mmHg] | Cauda equina nerve conduction velocity [4] [cm/ms] | Cauda equina nerve tissue blood flow [4] [ml/min. 100 g tissue] | Cauda equina nerve tissue oxygen tension [4] [mmHg] | Cauda equina nerve conduction velocity [5] [cm/ms] | Cauda equina nerve tissue blood flow [5] [ml/min. 100 g tissue] | Cauda equina nerve tissue oxygen tension [5] [mmHg] | Effect on cauda equina nerve tissue blood flow (in words) (30 mg/kg p.o., vs. solvent group) | Effect on decrease in cauda equina nerve conduction velocity (in words) (3, 10, 30 mg/kg p.o., vs. solvent group) | Effect on cauda equina nerve tissue oxygen tension (in words) (3, 10, 30 mg/kg p.o., vs. solvent group, significant at 30 mg/kg) |
| --- | --- | --- | --- | --- | --- | --- | --- | --- | --- | --- | --- | --- | --- | --- | --- | --- | --- | --- |
| O=C1CCc2cc(OCCCCc3nnnn3C3CCCCC3)ccc2N1 [Cilostazol, cilostazol, reference compound] | 14.585 ± 2.606 | 21.88 ± 4.25 | 33.7 ± 5.3 | did not improve the velocity | not improved | did not show an increasing effect | – | – | – | – | – | – | – | – | – | – | – | – |
| Cl.O=c1[nH]nc(OCCCc2ccc(Cl)cc2)c(NCc2cccnc2)c1Br [Compound A, 4-bromo-6-[3-(4-chlorophenyl)propoxy]-5-(3-pyridylmethylamino)-3(2H)-pyridazinone hydrochloride] | – | – | – | – | – | – | 20.327 ± 4.871 | 23.33 ± 4.59 | 35.5 ± 5.6 | 22.838 ± 3.571 | 24.42 ± 2.70 | 42.8 ± 5.8 | 27.098 ± 3.627 | 33.67 ± 4.21 | 49.8 ± 3.4 | significantly increased | significantly lessened the decrease in a dose-dependent manner | showed a dose-dependent increase |
